Measurements reported in patent US20230012368A1 (Hoffmann-La Roche Inc., priority 2018, published 2023).
Structures can show the parent of a compound that is named as a salt. Where two headings read alike, the source gives them in different places.

Tested on: Acinetobacter baumannii ATCC 17978
Assay: Antimicrobial susceptibility testing: 90% growth inhibitory concentration (IC90) determination
Type: cell-based
Conditions: 90% growth inhibitory concentration, Acinetobacter baumannii ATCC17978, Iso-Sensitest broth, OD 600 nm over 16h, read-out: ATCC17978 IC90
Procedure, shortened: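 Growth of the Acinetobacter baumannii strain was followed by optical density at 600 nm every 20 minutes for 16h at 35±2° C. Inoculum was ~5×10^(5) CFU/ml in Iso-Sensitest medium, with twofold compound dilutions (e.g. 50 to 0.097 μM final). The 90% inhibitory concentration was derived in log-phase growth.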

[1] = Acinetobacter baumannii, ATCC17978, 16 h

Row | SMILES | IC90 [1] [nM] | IC90 [nM]
1 | Cc1cc(Nc2nccn3c(-c4ccc(OCC#N)c(F)c4F)cnc23)ccc1C(=O)NC[C@@H](N)CNC(=O)[C@@H]1C[C@@H](O)CN1 [Example 473, (2S,4R)-N-[(2R)-2-amino-3-[[4-[[3-[4-(cyanomethoxy)-2,3-difluoro-phenyl]imidazo[1,2-a]pyrazin-8-yl]amino]-2-methyl-benzoyl]amino]propyl]-4-hydroxy-pyrrolidine-2-carboxamide; formic acid] | 210 | –
2 | CCc1cc(Nc2nccn3c(-c4ccc(Oc5ccccn5)c(F)c4F)cnc23)ccc1C(=O)NCC(=O)N1CCN[C@H](CO)C1 [Example 474, 4-[[3-[2,3-difluoro-4-(2-pyridyloxy)phenyl]imidazo [1,2-a]pyrazin-8-yl]amino]-2-ethyl-N-[2-[(3S)-3-(hydroxymethyl)piperazin-1-yl]-2-oxo-ethyl]benzamide] | 910 | –
3 | CCc1cc(Nc2nccn3c(-c4ccc(Oc5ccccn5)c(F)c4F)cnc23)ccc1C(=O)NCCC(=O)N1CCN[C@H](CO)C1 [Example 475, 4-[[3-[2,3-difluoro-4-(2-pyridyloxy)phenyl]imidazo [1,2-a]pyrazin-8-yl]amino]-2-ethyl-N-[3-[(3S)-3-(hydroxymethyl)piperazin-1-yl]-3-oxo-propyl]benzamide] | 410 | –
4 | CCc1cc(Nc2nccn3c(-c4ccc(Oc5ccccn5)c(F)c4F)cnc23)ccc1C(=O)NCCCC(=O)N1CCN[C@H](CO)C1 [Example 476, 4-[[3-[2,3-difluoro-4-(2-pyridyloxy)phenyl]imidazo [1,2-a]pyrazin-8-yl]amino]-2-ethyl-N-[4-[(3S)-3-(hydroxymethyl)piperazin-1-yl]-4-oxo-butyl]benzamide] | 360 | –
5 | CCc1cc(Nc2nccn3c(-c4ccc(Oc5ccccn5)c(F)c4F)cnc23)ccc1C(=O)NCCCCC(=O)N1CCN[C@H](CO)C1 [Example 477, 4-[[3-[2,3-difluoro-4-(2-pyridyloxy)phenyl]imidazo [1,2-a]pyrazin-8-yl]amino]-2-ethyl-N-[5-[(3S)-3-(hydroxymethyl)piperazin-1-yl]-5-oxo-pentyl]benzamide] | 330 | –
6 | CCc1cc(Nc2nccn3c(-c4ccc(Oc5ccccn5)c(F)c4F)cnc23)ccc1C(=O)NCCCCCC(=O)N1CCN[C@H](CO)C1 [Example 478, 4-[[3-[2,3-difluoro-4-(2-pyridyloxy)phenyl]imidazo [1,2-a]pyrazin-8-yl]amino]-2-ethyl-N-[6-[(3S)-3-(hydroxymethyl)piperazin-1-yl]-6-oxo-hexyl]benzamide] | 380 | –
7 | COc1ccc(-c2cnc3c(Nc4ccc(C(=O)NCCCN)c(C)c4F)nccn23)c(F)c1F [Example 479, N-(3-aminopropyl)-4-((3-(2,3-difluoro-4-methoxyphenyl)imidazo[1,2-a]pyrazin-8-yl)amino)-3-fluoro-2-methylbenzamide] | 490 | –
8 | CCc1cc(Nc2nccn3c(-c4ccc(OC)c(F)c4F)cnc23)ccc1C(=O)N[C@@H](C)CNC(C)=N [Example 480, 4-[[3-(2,3-difluoro-4-methoxyphenyl)imidazo[1,2-a]pyrazin-8-yl]amino]-#N!- [(2#S!)-1-(ethanimidoylamino)propan-2-yl]-2-ethylbenzamide;formic acid] | 270 | –
9 | C#CCCCNC(=O)c1ccc(Nc2nccn3c(-c4ccc(OC)c(F)c4F)cnc23)cc1CC [Example 481, 4-((3-(2,3-difluoro-4-methoxyphenyl)imidazo[1,2-a]pyrazin-8-yl)amino)-2-ethyl-N-(pent-4-yn-1-yl)benzamide] | 260 | –
10 | CCc1cc(Nc2nccn3c(-c4ccc(Oc5nccs5)c(F)c4F)cnc23)ccc1C(=O)NCCCN [Example 482, #N!-(3-aminopropyl)-4-[[3-[2,3-difluoro-4-(1,3-thiazol-2-yloxy)phenyl]imidazo[1,2-a]pyrazin-8-yl]amino]-2-ethylbenzamide] | 880 | –
11 | CCc1cc(Nc2nccn3c(-c4ccc(OC)c(F)c4F)cnc23)ccc1C(=O)NCC(O)CO (centres unmarked) [Example 483, 4-((3-(2,3-difluoro-4-methoxyphenyl)imidazo[1,2-a]pyrazin-8-yl)amino)-N-(2,3-dihydroxypropyl)-2-ethylbenzamide] | 210 | –
12 | CCc1cc(Nc2nccn3c(-c4ccc(OC)c(F)c4F)cnc23)ccc1C(=O)NC1(CNC(=O)[C@@H](N)CCCCN)CC1 [Example 484, N-[1-[[[(2S)-2,6-diaminohexanoyl]amino]meth-yl]cyclopropyl]-4-[[3-(2,3-difluoro-4-methoxy-phenyl)imidazo[1,2-a]pyrazin-8-yl]amino]-2-ethyl-benzamide] | 280 | –
13 | COc1ccc(-c2cnc3c(Nc4ccc(C(=O)N[C@H](C)CNC(C)=N)c(C)c4)nccn23)c(F)c1F [Example 486, 4-[[3-(2,3-difluoro-4-methoxyphenyl)imidazo[1,2-a]pyrazin-8-yl]amino]-#N!- [(2#R!)-1-(ethanimidoylamino)propan-2-yl]-2-methylbenzamide;formic acid] | 68 | –
14 | COc1ccc(-c2cnc3c(Nc4ccc(C(=O)N[C@@H](C)CNC(C)=N)c(Cl)c4)nccn23)c(F)c1F [Example 487, 2-chloro-4-[[3-(2,3-difluoro-4-methoxyphenyl)imidazo[1,2-a]pyrazin-8-yl]amino]-#N!- [(2#S!)-1-(ethanimidoylamino)propan-2-yl]benzamide;formic acid] | 120 | –
15 | COc1ccc(-c2cnc3c(Nc4ccc(C(=O)N[C@@H](C)CNC(C)=N)c(C)c4)nccn23)c(F)c1F [Example 488, 4-[[3-(2,3-difluoro-4-methoxyphenyl)imidazo[1,2-a]pyrazin-8-yl]amino]-#N!- [(2#S!)-1-(ethanimidoylamino)propan-2-yl]-2-methylbenzamide;formic acid] | 290 | –
16 | CCc1cc(Nc2nccn3c(-c4ccc(OC)c(F)c4F)cnc23)ccc1C(=O)N[C@@H](CC)CN [Example 489, N-[(1S)-1-(aminomethyl)propyl]-4-[[3-(2,3-difluoro-4-methoxy-phenyl)imidazo[1,2-a]pyrazin-8-yl]amino]-2-ethyl-benzamide; formic acid] | 500 | –
17 | CCc1cc(Nc2nccn3c(-c4ccc(Oc5ccc(C(=O)NCCN)cn5)c(F)c4F)cnc23)ccc1C(=O)NC [Example 490, N-(2-aminoethyl)-6-[4-[8-[3-ethyl-4-(methylcarbamoyl)anilino]imidazo[1,2-a]pyrazin-3-yl]-2,3-difluoro-phenoxy]pyridine-3-carboxamide; formic acid] | – | 450
18 | COc1ccc(-c2cnc3c(Nc4ccc(C(=O)NCCCCCN)c(C)c4)nccn23)c(F)c1F [Example 491, N-(5-aminopentyl)-4-((3-(2,3-difluoro-4-methoxyphenyl)imidazo[1,2-a]pyrazin-8-yl)amino)-2-methylbenzamide hydrochloride] | 41 | –
19 | COc1ccc(-c2cnc3c(Nc4ccc(C(=O)NCCCCCN)c(Cl)c4)nccn23)c(F)c1F [Example 492, N-(5-aminopentyl)-2-chloro-4-((3-(2,3-difluoro-4-methoxyphenyl)imidazo[1,2-a]pyrazin-8-yl)amino)benzamide hydrochloride] | 44 | –
20 | COc1ccc(-c2cnc3c(Nc4ccc(C(=O)NCCCCCCN)c(C)c4)nccn23)c(F)c1F [Example 493, N-(6-aminohexyl)-4-((3-(2,3-difluoro-4-methoxyphenyl)imidazo[1,2-a]pyrazin-8-yl)amino)-2-methylbenzamide hydrochloride] | 35 | –
